Settings: Capillary rise

COC [dimethyl ether]
Settings | surface tension liquid-gas [mN/m]
213.12 K | 24.52
223.11 K | 22.95
228.19 K | 22.26
233.31 K | 21.44
238.15 K | 20.75
243.12 K | 19.81
248.12 K | 19.3
253.09 K | 18.54
258.11 K | 17.71
263.12 K | 16.99
268.08 K | 16.27
273.08 K | 15.43
278.06 K | 14.6
283.07 K | 13.97
288.04 K | 13.16
293.09 K | 12.66
298.08 K | 11.73
303.2 K | 11
308.12 K | 10.22
313.12 K | 9.557
318.18 K | 9.089
323.18 K | 8.428
328.14 K | 7.64
333.14 K | 7.045
338.09 K | 6.368
343.13 K | 5.717
348.07 K | 5.148
353.11 K | 4.435
358.11 K | 3.94
363.1 K | 3.315
368.04 K | 2.779

Reference: the NIST ThermoML archive (doi:10.1021/je034097r)
